# Tests used:
# Assay in all cases: relative viability (nuclei count vs DMSO), 5 days (fraction); higher = more cells survive
# Pictilisib + Foretinib = compound: CS(=O)(=O)N1CCN(Cc2cc3nc(-c4cccc5[nH]ncc45)nc(N4CCOCC4)c3s2)CC1 [Pictilisib] + COc1cc2c(Oc3ccc(NC(=O)C4(C(=O)Nc5ccc(F)cc5)CC4)cc3F)ccnc2cc1OCCCN1CCOCC1 [Foretinib] (partner 0.25 µM)
# Summary of the method: (§1)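 Lung cancer cell lines in 1536-well plates were dosed by pin tool the day after seeding, either with one drug alone or with a fixed anchor-drug dose plus five library-drug doses (not always all listed) in √10 steps. After 5 days, cells were fixed and their nuclei stained in one step (final 0.05% Triton X-100, 1% formaldehyde, 1 ug/ml Hoechst), then counted on 4× images. Relative viability is the nuclei count in treated wells divided by that in vehicle wells. Values are medians of duplicate plates.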
# Pictilisib + Linsitinib = compound: CS(=O)(=O)N1CCN(Cc2cc3nc(-c4cccc5[nH]ncc45)nc(N4CCOCC4)c3s2)CC1 [Pictilisib] + C[C@]1(O)C[C@@H](c2nc(-c3ccc4ccc(-c5ccccc5)nc4c3)c3c(N)nccn32)C1 [Linsitinib] (partner 1 µM)
# Summary of the method: as §1
# MK-2206 + Pictilisib = compound: NC1(c2ccc(-c3nc4ccn5c(=O)[nH]nc5c4cc3-c3ccccc3)cc2)CCC1 [MK-2206] + CS(=O)(=O)N1CCN(Cc2cc3nc(-c4cccc5[nH]ncc45)nc(N4CCOCC4)c3s2)CC1 [Pictilisib] (partner 1 µM)
# Summary of the method: as §1
# MK-2206 + Dasatinib = compound: NC1(c2ccc(-c3nc4ccn5c(=O)[nH]nc5c4cc3-c3ccccc3)cc2)CCC1 [MK-2206] + Cc1nc(Nc2ncc(C(=O)Nc3c(C)cccc3Cl)s2)cc(N2CCN(CCO)CC2)n1 [Dasatinib] (partner 0.075 µM)
# Summary of the method: as §1
# MK-2206 + Phenformin = compound: NC1(c2ccc(-c3nc4ccn5c(=O)[nH]nc5c4cc3-c3ccccc3)cc2)CCC1 [MK-2206] + N=C(N)NC(=N)NCCc1ccccc1 [Phenformin] (partner 250 µM)
# Summary of the method: as §1
Cell Line,relative viability (Pictilisib + Foretinib; first compound 0.02 µM),relative viability (Pictilisib + Foretinib; first compound 0.06325 µM),relative viability (Pictilisib + Foretinib; first compound 0.6325 µM),relative viability (Pictilisib + Foretinib; first compound 2 µM),relative viability (Pictilisib + Linsitinib; first compound 0.02 µM),relative viability (Pictilisib + Linsitinib; first compound 0.06325 µM),relative viability (Pictilisib + Linsitinib; first compound 0.6325 µM),relative viability (Pictilisib + Linsitinib; first compound 2 µM),relative viability (MK-2206 + Pictilisib; first compound 0.01 µM),relative viability (MK-2206 + Pictilisib; first compound 0.03162 µM),relative viability (MK-2206 + Pictilisib; first compound 0.3162 µM),relative viability (MK-2206 + Pictilisib; first compound 1 µM),relative viability (MK-2206 + Dasatinib; first compound 0.01 µM),relative viability (MK-2206 + Dasatinib; first compound 0.03162 µM),relative viability (MK-2206 + Dasatinib; first compound 0.3162 µM),relative viability (MK-2206 + Dasatinib; first compound 1 µM),relative viability (MK-2206 + Phenformin; first compound 0.01 µM),relative viability (MK-2206 + Phenformin; first compound 0.03162 µM),relative viability (MK-2206 + Phenformin; first compound 0.3162 µM),relative viability (MK-2206 + Phenformin; first compound 1 µM)
NCI-H1944,0.866,0.737,0.627,0.382,1.09,1.38,0.786,0.643,0.361,0.346,0.361,0.34,0.243,0.227,0.198,0.182,0.197,0.217,0.169,0.185
NCI-H2009,1.28,1.17,1.13,0.812,1.21,1.18,1.16,0.799,0.717,1.02,0.831,0.865,0.296,0.309,0.287,0.325,0.474,0.464,0.436,0.4
SW 900,0.93,0.815,0.774,0.533,–,–,–,–,–,–,–,–,0.573,0.636,0.531,0.476,0.656,0.71,0.451,0.538
NCI-H441,0.929,0.749,0.745,0.539,0.58,0.581,0.414,0.325,0.501,0.467,0.424,0.48,0.566,0.503,0.501,0.422,0.974,0.865,0.656,0.449
NCI-H1623,0.773,0.792,0.639,0.348,–,–,–,–,–,–,–,–,0.518,0.471,0.556,0.423,0.555,0.592,0.574,0.605
NCI-H1437,1.23,1.29,1.36,0.96,0.975,1.05,0.662,0.447,0.472,0.399,0.366,0.263,0.425,0.424,0.412,0.398,0.297,0.265,0.306,0.301
PC-14,1.04,0.976,0.953,0.805,0.934,0.937,0.91,0.588,0.635,0.627,0.648,0.514,0.289,0.346,0.27,0.294,0.493,0.663,0.584,0.525
LCLC-103H,0.77,0.634,0.403,0.393,1.14,1.14,0.814,0.716,0.642,0.688,0.54,0.701,0.459,0.497,0.461,0.355,0.304,0.321,0.351,0.314
COR-L23,1.01,1.07,0.979,0.934,0.914,0.886,0.878,0.387,0.816,0.834,0.741,0.686,0.452,0.527,0.494,0.536,0.417,0.452,0.422,0.459
H3255,0.813,0.884,0.571,0.494,1.04,0.823,0.84,0.467,0.477,0.45,0.399,0.384,0.347,0.344,0.288,0.284,0.357,0.322,0.368,0.343
HCC-44,–,–,–,–,0.607,0.627,0.609,0.303,0.804,0.619,0.496,0.392,–,–,–,–,0.184,0.184,0.152,0.107
EBC-1,0.122,0.0955,0.112,0.115,1.02,0.966,0.768,0.195,0.459,0.314,0.176,0.164,–,–,–,–,–,–,–,–
NCI-H1703,0.34,0.372,0.321,0.27,1.19,0.634,0.347,0.137,0.239,0.232,0.236,0.254,–,–,–,–,–,–,–,–
NCI-H1299,1.06,1.19,1.22,1.06,1.03,1.01,0.991,0.864,0.832,0.728,0.744,0.769,–,–,–,–,–,–,–,–
NCI-H2170,1,0.983,0.827,0.772,–,–,–,–,0.367,0.363,0.309,0.262,0.611,0.504,0.625,0.559,0.398,0.44,0.426,0.404
A549,1.04,0.937,0.771,0.431,0.674,0.606,0.476,0.307,0.496,0.494,0.394,0.304,–,–,–,–,0.173,0.152,0.203,0.124
NCI-H522,–,–,–,–,–,–,–,–,–,–,–,–,0.98,0.842,0.857,0.894,0.605,0.681,0.627,0.613
NCI-H1650,1.25,1.39,1.03,0.441,–,–,–,–,0.549,0.566,0.476,0.56,0.312,0.273,0.215,0.244,0.509,0.465,0.388,0.384
NCI-H2342,0.991,1.02,0.805,0.539,–,–,–,–,–,–,–,–,0.369,0.296,0.282,0.276,0.657,0.594,0.542,0.417
Calu-6,0.979,0.959,0.834,0.703,0.981,1.02,0.868,0.829,0.93,0.895,0.86,0.873,–,–,–,–,–,–,–,–

# Source: the supplement of paper PMC10307832
